One may read the EC50 as the concentration giving half of the maximal effect.

We go through four molecules from US10752634B2, “Crystalline forms of a brutons tyrosine kinase inhibitor” (Pharmacyclics LLC, priority 2012, dated 2020).

Data set [1] relates to OCI-Ly10. As to the kind of experiment: Growth inhibition of OCI-Ly10 (ABC-DLBCL) cells. The format is cell-based. To be noted: Homo sapiens. From the text:
See U.S. Pat. No. 7,711,492 and Staudt et al., Nature, Vol. 463, Jan. 7, 2010, pp. 88-92, the contents of which are incorporated by reference in their entirety.

Data set [2] is described as follows: Solid form stability on storage, by XRPD. The format is physicochemical. The conditions noted are these: for XRPD pattern post storage: stated as property of the form. On the procedure:
X-Ray powder diffraction patterns were collected on a Bruker AXS C2 GADDS or Bruker AXS D8 diffractometer.
X-Ray Powder Diffraction patterns were collected on a Bruker AXS C2 GADDS diffractometer using Cu Ka radiation (40 kV, 40 mA), automated XYZ stage, laser video microscope for auto-sample positioning and a HiStar 2-dimensional area detector. X-ray optics consists of a single Göbel multilayer mirror coupled with a pinhole collimator of 0.3 mm A weekly performance check is carried out using a certified standard NIST 1976 Corundum (flat plate). The beam divergence, i.e. the effective size of the X-ray beam on the sample, was approximately 4 mm. A θ-θ continuous scan mode was employed with a sample—detector distance of 20 cm which gives an effective 2θ range of 3.2°-29.7°. Typically the sample would be exposed to the X-ray beam for 120 seconds. The software used for data collection was GADDS for WNT 4.1.16 and the data were analysed and presented using Diffrac Plus EVA v11.0.0.2 or v13.0.0.2.
X-Ray Powder Diffraction patterns were collected on a Bruker D8 diffractometer using Cu Ka radiation (40 kV, 40 mA), θ-2θ goniometer, and divergence of V4 and receiving slits, a Ge monochromator and a Lynxeye detector. The instrument is performance checked using a certified Corundum standard (NIST 1976). The software used for data collection was Diffrac Plus XRD Commander v2.5.0 and the data were analysed and presented using Diffrac Plus EVA v11.0.0.2 or v13.0.0.2. Samples were run under ambient conditions as flat plate specimens using powder as received. The sample was gently packed into a cavity cut into polished, zero-background (510) silicon wafer. The sample was rotated in its own plane during analysis. The details of the data collection are: • Angular range: 2 to 42° 2θ • Step size: 0.05° 2θ • Collection time: 0.5 s/step

Data set [3] in a line: Thermodynamic aqueous solubility. It is filed as physicochemical. On the procedure:
The suspension was equilibrated at 25° C. for 24 hours then the pH was measured. The suspension was then filtered through a glass fibre C filter. The filtrate was then diluted by an appropriate factor e.g. 101. Quantitation was by HPLC with reference to a standard solution of approximately 0.25 mg/ml in DMSO. Different volumes of the standard, diluted and undiluted sample solutions were injected. The solubility was calculated using the peak areas determined by integration of the peak found at the same retention time as the principal peak in the standard injection.
Analysis was performed on an Agilent HP1100 series system equipped with a diode array detector and using ChemStation software vB.02.01-SR1.

The conditions of data set [4]: for changes in the XRPD after GVS analysis: after GVS isotherm; for mass change: between 0-90% RH. On the procedure:
Sorption isotherms were obtained using a SMS DVS Intrinsic moisture sorption analyser, controlled by DVS Intrinsic Control software v1.0.0.30. The sample temperature was maintained at 25° C. by the instrument controls. […] The weight change, (mass relaxation) of the sample as a function of % RH was constantly monitored by the microbalance (accuracy ±0.005 mg). Typically 5-20 mg of sample was placed in a tared mesh stainless steel basket under ambient conditions. The sample was loaded and unloaded at 40% RH and 25° C. (typical room conditions). A moisture sorption isotherm was performed as outlined below (2 scans giving 1 complete cycle). The standard isotherm was performed at 25° C. at 10% RH intervals over a 0-90% RH range. Data analysis was undertaken in Microsoft Excel using DVS Analysis Suite v6.0.0.7. The sample was recovered after completion of the isotherm and re-analysed by XRPD.

In brackets after ≈: the same amount, converted by molar mass. Where two headings read alike, the source gives them in different places.

For `C=CC(=O)N1CCC[C@@H](n2nc(-c3ccc(Oc4ccccc4)cc3)c3c(N)ncnc32)C1` [Compound 1, 1-((R)-3-(4-amino-3-(4-phenoxyphenyl)-1H-pyrazolo[3,4-d]pyrimidin-1-yl)piperidin-1-yl)prop-2-en-1-one], the EC50 in data set [1] (OCI-Ly10, 1 h, read-out: EC50 1 hour pulse, growth of OCI-Ly10) is 50 nM; in data set [1] (OCI-Ly10, read-out: EC50 continuous exposure, growth of OCI-Ly10), 10 nM.
As for `C=CC(=O)N1CCC[C@@H](n2nc(-c3ccc(Oc4ccccc4)cc3)c3c(N)ncnc32)C1` [Form E, 1-((R)-3-(4-amino-3-(4-phenoxyphenyl)-1H-pyrazolo[3,4-d]pyrimidin-1-yl)piperidin-1-yl)prop-2-en-1-one], the “form conversion on standing and drying” value in data set [2] (standing at ambient temperature overnight and drying at 40° C. in vacuo for one day) is “converted to Compound 1, Form A”.
As to `C=CC(=O)N1CCC[C@@H](n2nc(-c3ccc(Oc4ccccc4)cc3)c3c(N)ncnc32)C1` [Form A, 1-((R)-3-(4-amino-3-(4-phenoxyphenyl)-1H-pyrazolo[3,4-d]pyrimidin-1-yl)piperidin-1-yl)prop-2-en-1-one], the “XRPD pattern post storage” value in data set [2] (25° C. and 97% RH for at least a week) is on record as “substantially the same”; in data set [2] (40° C. and 75% RH for at least a week), “substantially the same”. The crystallinity after storage result in data set [2] (one week storage at 25° C./97% RH) and in data set [2] (one week storage at 40° C./75% RH) was “unaffected” throughout. Also, the observed aqueous solubility entry in data set [3] (about pH 8, stated as property of the form) was “about 0.013 mg/mL”. Further, the “Solubility in aqueous solution, Conc. Found” value in data set [3] (pH 8, 25° C., 24 hours) was 13 µg/mL (≈ 29.5 µM). Further, the “changes in the XRPD after GVS analysis” value in data set [4] is given as “No significant changes”. In data set [4] (25° C.), this molecule displayed a mass change of less than 0.3 % w/w.
For `C=CC(=O)N1CCC[C@@H](n2nc(-c3ccc(Oc4ccccc4)cc3)c3c(N)ncnc32)C1` [Form B, 1-((R)-3-(4-amino-3-(4-phenoxyphenyl)-1H-pyrazolo[3,4-d]pyrimidin-1-yl)piperidin-1-yl)prop-2-en-1-one], the “hysteresis in GVS” value in data set [4] (0-90% RH, 25° C.) is “No hysteresis”. Moreover, in data set [4], the “changes in the XRPD after GVS analysis” value is on record as “No significant changes”. In addition, the mass change in data set [4] (25° C.) is 2.3 % w/w.
